Results: patent publication US10307414B2, “Pyridinyl and fused pyridinyl triazolone derivatives” (Takeda Pharmaceutical Company Limited, priority 2013, dated 2019)

Target: human BTK (Homo sapiens (Human), UniProt Q06187)
Assay: BTK inhibition assay: BTK-mediated phosphorylation of FAM-labeled substrate 5-FAM-[…]-NH2 (Caliper microfluidic separation)
Assay type: biochemical
Settings: residues 382 to 659 of human BTK; 60 minutes at room temperature; pIC50 = -log(IC50), IC50 molar
Text: The activity of compounds as BTK inhibitors may be determined by a variety of methods, including in vitro and in vivo methods.
This construct engineers an in-frame translational fusion with the Glutathione-S-Transferase (GST) protein for use in affinity purification. The fusion protein derived from this construct contains a protease recognition sequence to liberate the BTK from the GST affinity tag. […] Recombinant proteins are isolated from cellular extracts by passage over Glutathione Sepharose 4B (GE Healthcare) and the BTK moiety is released from the GST affinity tag by treatment with PreScission protease. […] The purity of the fractions is assessed by SDS PAGE and the peak protein fractions are pooled and concentrated using Amicon Ultra-15 Centrifugal Filter Devices (Millipore).
The inhibitory properties of compounds relative to BTK is determined using a black 384-well-plate format in a buffer which contains 50 mM Hepes, 10 mM NaCl, 10 mM MgCl2, 0.2 mM EDTA, 0.01% Brij35®, 1 mM DTT, and 0.1 mg/mL BSA at pH 7.3. […] To quantify the fluorescent-labeled substrate and product following reaction, the test plate is loaded on a Caliper LC-3000, which measures percent of conversion by microfluidic-based separation. […]

Chain of human BTK (Q06187 382-659): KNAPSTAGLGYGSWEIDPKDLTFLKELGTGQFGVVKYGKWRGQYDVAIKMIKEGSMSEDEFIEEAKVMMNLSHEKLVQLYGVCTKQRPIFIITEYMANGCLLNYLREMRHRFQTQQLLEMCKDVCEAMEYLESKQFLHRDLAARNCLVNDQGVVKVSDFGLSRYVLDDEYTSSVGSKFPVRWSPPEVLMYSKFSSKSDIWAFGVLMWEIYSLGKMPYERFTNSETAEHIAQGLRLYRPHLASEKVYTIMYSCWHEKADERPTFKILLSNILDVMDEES

SMILES: C=CC(=O)N1C[C@@H](C)[C@H](Oc2nc(-c3n[nH]c(=O)[nH]3)cc3ccccc23)C1 (single isomer, unassigned) [Example 19]
- BTK Inhibition (pIC50): >8.2
